Laboratory results taken from patent US20190367516A1 (Bayer Pharma Aktiengesellschaft, priority 2015, published 2019).
Like-named read-outs stand apart in the source and are kept apart here.

Molecular target: T1, human M2 receptor (Homo sapiens, UniProt P08172)
T1 sequence (P08172 1-466): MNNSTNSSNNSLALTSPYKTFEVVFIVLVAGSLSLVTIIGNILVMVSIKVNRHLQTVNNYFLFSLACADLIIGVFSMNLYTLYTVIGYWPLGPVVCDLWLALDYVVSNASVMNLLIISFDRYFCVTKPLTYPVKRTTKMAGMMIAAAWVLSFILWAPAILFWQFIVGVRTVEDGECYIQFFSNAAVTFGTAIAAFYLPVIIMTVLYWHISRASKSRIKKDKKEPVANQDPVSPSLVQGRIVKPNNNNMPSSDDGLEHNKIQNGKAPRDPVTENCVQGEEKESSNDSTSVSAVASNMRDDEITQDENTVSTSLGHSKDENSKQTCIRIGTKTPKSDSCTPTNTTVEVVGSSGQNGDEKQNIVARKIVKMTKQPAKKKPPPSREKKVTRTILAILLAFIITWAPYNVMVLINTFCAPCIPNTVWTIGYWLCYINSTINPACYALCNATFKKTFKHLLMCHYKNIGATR

[1] = Receptor activity EC50, M2-GIRK1/4 activation test, acetylcholine at EC20, allosteric potency, in some cases mean values from two or more determinations
[2] = Receptor activity EC50, allosteric potency at EC20 acetylcholine, M2-GIRK1/4 reporter cells, in some cases mean of two or more determinations
[3] = read-out: Efficiency, boosting of the acetylcholine effect at EC20 acetylcholine concentration, M2-GIRK1/4 reporter cells

| Structure (SMILES) | EC50 [1] [nM] | EC50 [2] [nM] | Emax [3] [%] | also measured |
| --- | --- | --- | --- | --- |
| CC(CC(F)(F)F)NC(=O)c1cn(-c2ccc(F)cc2F)c2nc(N(C)C)ccc2c1=O (racemic) [Example 46, rac-1-(2,4-Difluorophenyl)-7-(dimethylamino)-4-oxo-N-[4,4,4-trifluorobutan-2-yl]-1,4-dihydro-1,8-naphthyridine-3-carboxamide] | 127 |  |  |  |
| CC[C@H](NC(=O)c1cn(-c2c(F)cc(F)cc2F)c2nc(N3CC4CC4(O)C3)ccc2c1=O)C(F)(F)F (mixture of isomers) [Example 416, 7-[1-Hydroxy-3-azabicyclo[3.1.0]hex-3-yl]-4-oxo-N-[(2S)-1,1,1-trifluorobutan-2-yl]-1-(2,4,6-trifluorophenyl)-1,4-dihydro-1,8-naphthyridine-3-carboxamide] |  | 8 |  | Emax (read-out: Efficiency): 92% |
| CC[C@@H](NC(=O)c1cn(-c2ccc(F)cc2F)c2nc(N3CCC(C)(O)C3=O)ccc2c1=O)C(F)(F)F (single isomer, unassigned) [Example 196] | 137 |  |  |  |
| CN(C)c1ccc2c(=O)c(C(=O)Nc3c(F)cccc3F)cn(-c3ccc(F)cc3F)c2n1 [Example 52, 1-(2,4-Difluorophenyl)-N-(2,6-difluorophenyl)-7-(dimethylamino)-4-oxo-1,4-dihydro-1,8-naphthyridine-3-carboxamide] | 104 |  |  |  |
| O=C(N[C@@H](C1CC1)C(F)(F)F)c1cn(-c2c(F)cc(F)cc2F)c2nc(N3CCOC3=O)ccc2c1=O [Example 374, N-[(1S)-1-Cyclopropyl-2,2,2-trifluoroethyl]-4-oxo-7-(2-oxo-1,3-oxazolidin-1.3-yl)-1-(2,4,6-trifluorophenyl)-1,4-dihydro-1,8-naphthyridine-3-carboxamide] | 49 |  |  |  |
| O=C(NC(c1ccccc1Cl)C(F)(F)F)c1cn(-c2ccccc2F)c2nc(N3CCC(O)C3=O)ccc2c1=O (single isomer, unassigned) [Example 290] | 312 |  |  |  |
| CC[C@@H](NC(=O)c1cn(-c2ccc(F)cc2F)c2nc(N3CC(O)C4(CC4)C3)ccc2c1=O)C(F)(F)F (stereo partly drawn) [Example 355, 1-(2,4-Difluorophenyl)-7-[7-hydroxy-5-azaspiro[2.4]hept-5-yl]-4-oxo-N-[(2R)-1,1,1-trifluorobutan-2-yl]-1,4-dihydro-1,8-naphthyridine-3-carboxamide] | 85 |  |  |  |
| CC[C@H](NC(=O)c1cn(-c2c(F)cccc2Cl)c2nc(N3C[C@@H](O)[C@H](O)C3)ccc2c1=O)C(F)(F)F [Example 346, 1-(2-Chloro-6-fluorophenyl)-7-[(3R,4R)-3,4-dihydroxypyrrolidin-1-yl]-4-oxo-N-[(2S)-1,1-trifluorobutan-2-yl]-1,4-dihydro-1,8-naphthyridine-3-carboxamide] | 50 |  |  |  |
| CC(C)C(NC(=O)c1cn(-c2ccc(F)cc2F)c2nc(N3CC[C@H](F)C3)ccc2c1=O)C(F)(F)F (stereo partly drawn) [Example 69, 1-(2,4-Difluorophenyl)-7-[(3S)-3-fluoropyrrolidin-1-yl]-4-oxo-N-[1,1,1-trifluoro-3-methylbutan-2-yl]-1,4-dihydro-1,8-naphthyridine-3-carboxamide] | 13 |  |  |  |
| CN(CCO)c1ccc2c(=O)c(C(=O)NC34CC5CC(CC(C5)C3)C4)cn(-c3ccc(F)cc3F)c2n1 [Example 82, 1-(2,4-Difluorophenyl)-7-[(2-hydroxyethyl)(methyl)amino]-4-oxo-N-(tricyclo[3.3.1.1^3,7]dec-1-yl)-1,4-dihydro-1,8-naphthyridine-3-carboxamide] | 60 |  |  |  |
| O=C(NC12CC3CC(CC(C3)C1)C2)c1cn(-c2ccc(F)cc2F)c2nc(N3CCC(F)(F)C3)ccc2c1=O [Example 73, 1-(2,4-Difluorophenyl)-7-(3,3-difluoropyrrolidin-1-yl)-4-oxo-N-(tricyclo[3.3.1.1^3,7]dec-1-yl)-1,4-dihydro-1,8-naphthyridine-3-carboxamide] | 73 |  |  |  |
| O=C(N[C@H](c1ccccc1Cl)C(F)(F)F)c1cn(-c2ccc(F)cc2F)c2nc(N3CCCC(O)C3=O)ccc2c1=O (single isomer, unassigned) [Example 210] | 285 |  |  |  |
| CC(C)C(NC(=O)c1cn(-c2ccc(F)cc2F)c2nc(N(C)C)ccc2c1=O)C(F)(F)F (racemic) [Example 150, rac-1-(2,4-Difluorophenyl)-7-(dimethylamino)-4-oxo-N-(1,1,1-trifluoro-3-methylbutan-2-yl)-1,4-dihydro-1,8-naphthyridine-3-carboxamide] | 72 |  |  |  |
| CC(C)CC(NC(=O)c1cn(-c2ccc(F)cc2F)c2nc(NCC(F)F)ccc2c1=O)C(F)(F)F (racemic) [Example 125, rac-7-[(2,2-Difluoroethyl)amino]-1-(2,4-difluorophenyl)-4-oxo-N-[1,1,1-trifluoro-4-methylpentan-2-yl]-1,4-dihydro-1,8-naphthyridine-3-carboxamide] | 116 |  |  |  |
| O=C(NC(c1c(F)cccc1F)C(F)(F)F)c1cn(-c2ccc(F)cc2F)c2nc(N3CCC(O)CC3=O)ccc2c1=O (single isomer, unassigned) [Example 254, 1-(2,4-Difluorophenyl)-N-[1-(2,6-difluorophenyl)-2,2,2-trifluoroethyl]-7-[4-hydroxy-2-oxopiperidin-1-yl]-4-oxo-1,4-dihydro-1,8-naphthyridine-3-carboxamide] | 337 |  |  |  |
| CC[C@@H](NC(=O)c1cn(-c2ccc(F)cc2F)c2nc(N3CCCC3=O)ccc2c1=O)C(F)(F)F [Example 337, 1-(2,4-Difluorophenyl)-4-oxo-7-(2-oxopyrrolidin-1-yl)-N-[(2R)-1,1,1-trifluorobutan-2-yl]-1,4-dihydro-1,8-naphthyridine-3-carboxamide] | 36 |  |  |  |
| O=C(NC12CC3CC(CC(C3)C1)C2)c1cn(-c2ccc(F)cc2F)c2nc(N3CCOCC3)ccc2c1=O [Example 136, 1-(2,4-Difluorophenyl)-7-(morpholin-4-yl)-4-oxo-N-(tricyclo[3.3.1.1^3,7]dec-1-yl)-1,4-dihydro-1,8-naphthyridine-3-carboxamide] | 24 |  |  |  |

Further lines, with some results ahead:

| EC50 [1] [nM] | EC50 [2] [nM] | Emax [3] [%] | Structure (SMILES) | also measured |
| --- | --- | --- | --- | --- |
|  | 67 | 89 | CC[C@H](NC(=O)c1cn(-c2c(F)cc(F)cc2F)c2nc(N3CCN(C)CC3)ccc2c1=O)C(F)(F)F [Example 496] |  |
|  | 17 |  | CCC(COC(F)(F)F)NC(=O)c1cn(-c2c(F)cc(F)cc2F)c2nc(N3CCNC3=O)ccc2c1=O (racemic) [Example 611, 4-Oxo-7-(2-oxoimidazolidin-1-yl)-N-[1-(trifluoromethoxy)butan-2-yl]-1-(2,4,6-trifluorophenyl)-1,4-dihydro-1,8-naphthyridine-3-carboxamide] | Efficiency (boosting of the acetylcholine effect at EC20 acetylcholine concentration, M2-GIRK1/4 reporter cells): 90.0% |
|  | 69 | 91.3 | CC[C@@H](NC(=O)c1cn(-c2ccc(F)cc2F)c2nc(N3C(=O)CC(O)C3C)ccc2c1=O)C(F)(F)F (stereo partly drawn) [Example 640, 1-(2,4-Difluorophenyl)-7-[3-hydroxy-2-methyl-5-oxopyrrolidin-1-yl]-4-oxo-N-[(2R)-1,1,1-trifluorobutan-2-yl]-1,4-dihydro-1,8-naphthyridine-3-carboxamide] |  |
|  | 86 | 95 | O=C(Nc1c(Cl)cccc1Cl)c1cn(-c2ccc(F)cc2F)c2nc(N3C[C@@H](O)[C@@H](O)C3)ccc2c1=O [Example 651, N-(2,6-Dichlorophenyl)-1-(2,4-difluorophenyl)-7-[(3R,4S)-3,4-dihydroxypyrrolidin-1-yl]-4-oxo-1,4-dihydro-1,8-naphthyridine-3-carboxamide] |  |
|  | 102 | 84.5 | O=C(N[C@@H](C1CC1)C(F)(F)F)c1cn(-c2c(F)cc(F)cc2F)c2nc(N3CCC[C@H]3CO)ccc2c1=O [Example 660, N-[(1S)-1-Cyclopropyl-2,2,2-trifluoroethyl]-7-[(2S)-2-(hydroxymethyl)pyrrolidin-1-yl]-4-oxo-1-(2,4,6-trifluorophenyl)-1,4-dihydro-1,8-naphthyridine-3-carboxamide] |  |
|  | 38 | 100 | O=C(N[C@@H](C1CC1)C(F)(F)F)c1cn(-c2c(F)cc(F)cc2F)c2nc(N3CC(O)C3)ccc2c1=O [Example 662, N-[(1S)-1-Cyclopropyl-2,2,2-trifluoroethyl]-7-(3-hydroxyazetidin-1-yl)-4-oxo-1-(2,4,6-trifluorophenyl)-1,4-dihydro-1,8-naphthyridine-3-carboxamide] |  |
|  | 60 | 98.1 | NC(=O)N1CCN(c2ccc3c(=O)c(C(=O)Nc4c(Cl)cccc4Cl)cn(-c4c(F)cc(F)cc4F)c3n2)CC1 [Example 636] |  |
|  | 12 | 100 | O=C(NC(C(F)(F)F)C(F)(F)F)c1cn(-c2c(F)cc(F)cc2F)c2nc(N3C[C@@H](O)[C@H](O)C3)ccc2c1=O [Example 572, 7-[(3R,4R)-3,4-Dihydroxypyrrolidin-1-yl]-N-(1,1,1,3,3,3-hexafluoropropan-2-yl)-4-oxo-1-(2,4,6-trifluorophenyl)-1,4-dihydro-1,8-naphthyridine-3-carboxamide] |  |
|  | 3 | 100 | CC(NC(=O)c1cn(-c2c(F)cc(F)cc2F)c2nc(N3C[C@@H](C)NC3=O)ccc2c1=O)C(F)(F)C(F)(F)F (mixture of isomers) [Example 458, 7-[(4R)-4-Methyl-2-oxoimidazolidin-1-yl]-4-oxo-N-[3,3,4,4,4-pentafluorobutan-2-yl]-1-(2,4,6-trifluorophenyl)-1,4-dihydro-1,8-naphthyridine-3-carboxamide] |  |
